Legend:
[1] = tested on: haloperidol-induced stiffness; assay: Haloperidol-induced Wistar rat stiffness model (bar test, rearing); format: in vivo, Wistar rats; conditions: for Number of standings: 1st hour after haloperidol
Description: Time of bar test: The stiffness of the rats was tested by the bar test. That is, a wooden bar with a diameter of 8 mm was fixed between 2 iron stands and was 10 cm from the bench top; and then, the rat's tail was grabbed to make its front paws rest on the wooden bar and its hind paws or buttocks on the ground. Generally, the rat needs to acclimate several times when it was tested for the first time. The time for the forelimbs to drop from the bar or the time for the hind limbs to leave the bench top were tested, each rat was tested 3 times. Number of standings: the number of standings of the rat was measured by the rearing test. That is, the rat was placed in a 27*52 cm cage and acclimate for 5 minutes, and the spontaneous activity behavior, i.e., the number of standings, of the rat within 10 minutes was recorded. When the rat's hind limbs stood with two forelimbs raised over the shoulders and touched the ground, one standing is counted, and the one forelimb lift was excluded. Generally, the rat would raise its forelimbs to touch the cage wall. If the rat raised its forelimbs over the shoulders several times without falling to the ground, only one standing was counted. The time of bar test was taken as a measurement index, including the average time and the maximum time. Long time indicates severe stiffness, short time indicates mild stiffness. After drug treatment, the shorter the time of bar test, the better the effect of the drug on relieving stiffness. The number of standings was counted by the rearing test. The more the number of standings, the more frequent the spontaneous exploration activity of the rat, and the lower the stiffness. The statistical analysis between groups was performed on the data by using Prism GraphPad 7.0 independent sample T test, and P<0.05 was considered as a significant difference.

[2] = tested on: haloperidol-induced stiffness; assay: Haloperidol-induced Parkinson's disease stiffness model in CD-1 mice (rearing and bar tests); format: in vivo; conditions: Experiment I
From the text: Parkinson's disease (PD) is a common class of degenerative disease of the nervous system with the main pathological changes including the loss of substantia nigra dopaminergic neurons and the decrease of dopamine transmitter content, leading to tremor at rest, muscle stiffness, […], postural reflex disorders and other clinical symptoms. Haloperidol, a dopamine D2 receptor blocker, can block the dopamine D2 receptor in the striatum, leading to mouse dystonic postures, namely, stiffness and hypokinesia. This model is a recognized animal model of Parkinson's syndrome. The ameliorative effect of a test substance on the stiffness symptom of Parkinson's disease induced by haloperidol in CD-1 mice was evaluated. 57 SPF-grade male CD-1 mice (4 weeks old at the time of purchase and 8 weeks old at the time of experiment) with the weight of about 40 g were randomly divided into 5 groups, namely, a vehicle group (n=11), a group of 1 mg/kg benzene sulfonate of Compound 40 (n=11), a group of 3 mg/kg benzene sulfonate of Compound 40 (n=12), a group of 10 mg/kg benzene sulfonate of Compound 40 (n=12), and a group of 30 mg/kg benzene sulfonate of Compound 40 (n=11). 1 mg/kg haloperidol was injected subcutaneously at an injection volume of 10 ml/kg. 30 minutes after the injection, Compound 40 at each dose was intragastrically infused at a volume of 10 ml/kg. At the 1st hour and the 4th hour after the administration was completed, the rearing and bar tests were performed respectively, and the number of standings and on-bar time of the mice were counted to evaluate the ameliorative effect of Compound 40 on the stiffness symptom of haloperidol-induced Parkinson's disease in CD-1 mice. […] Firstly, the acetate of Compound 22 at each dose was intragastrically infused at a volume of 10 ml/kg. After 30 min, 1 mg/kg haloperidol was injected subcutaneously at an injection volume of 10 ml/kg. At the 1st hour and the 4th hour after the administration was completed, the rearing and bar tests were performed respectively, and the number of standings and on-bar time of the mice were counted to evaluate the ameliorative effect of the acetates of Compound 22 on the stiffness symptom of haloperidol-induced Parkinson's disease in CD-1 mice. […] Firstly, Compound 27 at each dose was intragastrically infused at a volume of 10 ml/kg. After 30 min, 1 mg/kg haloperidol was injected subcutaneously at an injection volume of 10 ml/kg. At the 1st hour and the 4th hour after the administration was completed, the rearing and bar tests were performed respectively, and the number of standings and on-bar time of the mice were counted to evaluate the ameliorative effect of Compound 27 on the stiffness symptom of haloperidol-induced Parkinson's disease in CD-1 mice. The mice were subcutaneously injected with haloperidol at abdomen at a dose of 1 mg/kg, with the concentration of a working solution of 0.1 mg/ml and an injection volume of 10 ml/kg. At the 1st hour and the 4th hour after drug intervention, the mice were put into a white transparent plastic bucket with a diameter of 20 cm and a height of 21 cm. The mice were allowed to acclimate in the bucket for 5 min before starting video recording. The spontaneous activity behaviors of the mice within 10 minutes were recorded, whereby the number of standings was counted. The more the standings, the more frequent the spontaneous exploration activities of the mice, and the lower the degree of stiffness. At the time points of 1st and 4th hours after the rearing test was completed, bar test was carried out. The mice were placed on a long wooden bar with a diameter of […] and a height of 6 cm. The mice were let to hold the wooden bar with forelimbs, only with the buttocks or hind limbs on the ground. The timing was stopped when the hind limbs left the bench top or the fore limbs left the wooden bar, and the on-bar time of the mice was recorded. Each mouse was tested 3 times, and the maximum on-bar time and the average on-bar time were counted. […]

[3] = Pharmacokinetics of Compound 40 and benzene sulfonate thereof in ICR mice, PO; conditions: mouse, in vivo, PO 100 mg/kg (based on free base), 40% Hp-β-CD
[4] = 10 mg/kg intragastric, 1st hour
[5] = 10 mg/kg intragastric, 4th hour
[6] = 30 mg/kg intragastric, 1st hour
[7] = 30 mg/kg intragastric, 4th hour

Cn1nnc(-c2ccc(CCNc3nc(N)n4nc(-c5ccco5)nc4n3)cc2)n1.O=S(=O)(O)c1ccccc1 [Benzene sulfonate of Compound 40, N^5-(4-(2-methyl-2H-tetrazol-5-yl)phenethyl)-2-(furan-2-yl)-[1,2,4]triazolo[1,5-a][1,3,5]triazine-5,7-diamine benzene sulfonate]
Average on-bar time ([1]; 3 mg/kg intragastric): 212.67 ± 51.43 s | Maximum on-bar time ([1]; 3 mg/kg intragastric): 266.63 ± 50.73 s | Number of standings ([1]; 3 mg/kg intragastric): 1.75 ± 0.60 | Average on-bar time ([1]; 10 mg/kg intragastric): 41.67 ± 16.50 s | Maximum on-bar time ([1]; 10 mg/kg intragastric): 69.67 ± 28.71 s | Number of standings ([1]; 10 mg/kg intragastric): 7.89 ± 0.98 | Average on-bar time ([1]; 30 mg/kg intragastric): 12.29 ± 1.41 s | Maximum on-bar time ([1]; 30 mg/kg intragastric): 18.00 ± 2.21 s | Number of standings ([1]; 30 mg/kg intragastric): 13.00 ± 0.96 | Average on-bar time ([2]; 1 mg/kg intragastric, 1st hour): 237.67 ± 40.20 s | Maximum on-bar time ([2]; 1 mg/kg intragastric, 1st hour): 356.43 ± 55.79 s | Number of standings ([2]; 1 mg/kg intragastric, 1st hour): 17.00 ± 1.99 | Average on-bar time ([2]; 1 mg/kg intragastric, 4th hour): 241.14 ± 31.32 s | Maximum on-bar time ([2]; 1 mg/kg intragastric, 4th hour): 361.29 ± 53.92 s | Number of standings ([2]; 1 mg/kg intragastric, 4th hour): 8.71 ± 2.68 | Average on-bar time ([2]; 3 mg/kg intragastric, 1st hour): 120.05 ± 35.31 s | Maximum on-bar time ([2]; 3 mg/kg intragastric, 1st hour): 184.00 ± 50.55 s | Number of standings ([2]; 3 mg/kg intragastric, 1st hour): 17.00 ± 2.99 | Average on-bar time ([2]; 3 mg/kg intragastric, 4th hour): 171.76 ± 52.86 s | Maximum on-bar time ([2]; 3 mg/kg intragastric, 4th hour): 225.14 ± 51.96 s | Number of standings ([2]; 3 mg/kg intragastric, 4th hour): 14.86 ± 1.89 | Average on-bar time [2, 4]: 36.10 ± 5.88 s | Maximum on-bar time [2, 4]: 57.00 ± 11.21 s | Number of standings [2, 4]: 34.90 ± 4.75 | Average on-bar time [2, 5]: 66.07 ± 13.96 s | Maximum on-bar time [2, 5]: 96.10 ± 23.06 s | Number of standings [2, 5]: 17.80 ± 4.32 | Average on-bar time [2, 6]: 26.50 ± 5.88 s | Maximum on-bar time [2, 6]: 34.88 ± 6.68 s | Number of standings [2, 6]: 43.25 ± 3.89 | Average on-bar time [2, 7]: 20.00 ± 1.28 s | Maximum on-bar time [2, 7]: 24.13 ± 1.67 s | Number of standings [2, 7]: 25.13 ± 3.25 | AUC(0-t) [3]: 138 µg·h/mL | Cmax [3]: 36000 ng/mL | Tmax [3]: 0.5 h | AUC(0-inf) ([3]; read-out: AUCINF—pred): 138 µg·h/mL | half-life ([3]; read-out: T½ (converted)): 2.29 h
